Source: patent US9328374B2, “Selective culture medium and method for detecting carbapenem-resistant bacteria in a test sample” (Institut National de la Sante et de la Recherche Medicale …, priority 2011, dated 2016)

Tested on: E. coli
Assay: MIC of imipenem, ertapenem and meropenem
Type: cell-based, Escherichia coli

## C[C@@H](O)[C@H]1C(=O)N2C(C(=O)O)=C(SCCN=CN)C[C@H]12 [IPM, imipenem]
E. coli 1008 (TEM-1 + CTX-M-1)
  MIC: 0.19 µg/mL
E. coli 1008, CTX-M-1 + TEM-1, non-carbapenemase producer
  MIC: 0.19 µg/mL
E. coli 1020, CTX-M-1 + TEM-1, non-carbapenemase producer
  MIC: 0.19 µg/mL
E. coli 1023, CTX-M-2 + TEM-1, non-carbapenemase producer
  MIC: 0.12 µg/mL
E. coli 1033, CTX-M-15, non-carbapenemase producer
  MIC: 0.19 µg/mL
E. coli 1034 (TEM-1 + SHV-38)
  MIC: 0.19 µg/mL
E. coli 1034, TEM-1 + SHV-38, non-carbapenemase producer
  MIC: 0.19 µg/mL
E. coli 1048 (TEM-1 + SHV-2a)
  MIC: 0.19 µg/mL
E. coli 1048, TEM-1 + SHV-2a, non-carbapenemase producer
  MIC: 0.19 µg/mL
E. coli 1082 (TEM-1)
  MIC: 0.19 µg/mL
E. coli 1082, TEM-1, non-carbapenemase producer
  MIC: 0.19 µg/mL
E. coli 1092 (OXA-1)
  MIC: 0.12 µg/mL
E. coli 1092, OXA-1, non-carbapenemase producer
  MIC: 0.12 µg/mL
E. coli 6252, (wild type), non-carbapenemase producer
  MIC: 0.12 µg/mL
E. coli 6367 (wild type)
  MIC: 0.19 µg/mL
E. coli 6367, (wild type), non-carbapenemase producer
  MIC: 0.19 µg/mL
E. coli 10121 (CTX-M-2)
  MIC: 0.19 µg/mL
E. coli 10121, CTX-M-2, non-carbapenemase producer
  MIC: 0.19 µg/mL
E. coli 10122, CTX-M-1 + TEM-1, non-carbapenemase producer
  MIC: 0.19 µg/mL
E. coli 0404018, VIM-1+ CMY-6
  MIC: 3 µg/mL
E. coli 1008077, VIM-1+ TEM-1 + CTX-M-15
  MIC: >32 µg/mL
E. coli 1108013, IMP-1 + TEM-1
  MIC: 0.5 µg/mL
E. coli ALL (NDM-1 + OXA-1 + OXA-2 + CTX-M-15 + TEM-1)
  MIC: 4 µg/mL
E. coli ALL, NDM-1 + TEM-1 + CTX-M-15 + OXA-1 + OXA-2
  MIC: 4 µg/mL
E. coli AME (OXA-48 + CTX-M-24)
  MIC: 0.25 µg/mL
E. coli AME, OXA-48 + CTX-M-24
  MIC: 0.25 µg/mL
E. coli AUS (NDM-1 + CTX-M-15 + TEM-1)
  MIC: 6 µg/mL
E. coli AUS, NDM-1 + TEM-1 + CTX-M-15
  MIC: 6 µg/mL
E. coli BER (OXA-48 + CTX-M-15)
  MIC: 0.38 µg/mL
E. coli BER, OXA-48 + TEM-1 + CTX-M-15
  MIC: 0.38 µg/mL
E. coli BOK (OXA-48 + CTX-M-15)
  MIC: 0.25 µg/mL
E. coli BOK, OXA-48 + CTX-M-15
  MIC: 0.25 µg/mL
E. coli BON (OXA-48 + CTX-M-24 + TEM-1)
  MIC: 0.38 µg/mL
E. coli BON, OXA-48 + TEM-1 + CTX-M-24
  MIC: 0.38 µg/mL
E. coli BOU (OXA-48 + CTX-M-15)
  MIC: 0.5 µg/mL
E. coli BOU, OXA-48 + CTX-M-15
  MIC: 0.5 µg/mL
E. coli COL (KPC-2)
  MIC: 4 µg/mL
E. coli COL, KPC-2 + TEM-1 + CTX-M-9
  MIC: 4 µg/mL
E. coli DIH (VIM-19)
  MIC: 8 µg/mL
E. coli DIH, VIM-19
  MIC: 8 µg/mL
E. coli DIN, KPC-2 + TEM-1 + OXA-1
  MIC: 1 µg/mL
E. coli E14 (CTX-M-14)
  MIC: 0.12 µg/mL
E. coli E14, CTX-M-14, non-carbapenemase producer
  MIC: 0.12 µg/mL
E. coli ECA (ACC-1)
  MIC: 0.12 µg/mL
E. coli ECA, ACC-1, non-carbapenemase producer
  MIC: 0.12 µg/mL
E. coli EVB (VEB-1)
  MIC: 0.12 µg/mL
E. coli EVB, VEB-1, non-carbapenemase producer
  MIC: 0.12 µg/mL
E. coli FOR (CTX-M-15)
  MIC: 0.12 µg/mL
E. coli FOR, CTX-M-15, non-carbapenemase producer
  MIC: 0.12 µg/mL
E. coli GEN (NDM-1 + OXA-1 + CMY-30 + TEM-1)
  MIC: 8 µg/mL
E. coli GEN, NDM-1 + TEM-1 + CMY-30 + OXA-1
  MIC: 8 µg/mL
E. coli GOG (OXA-48 + CTX-M-24)
  MIC: 0.5 µg/mL
E. coli GUE (NDM-1 + OXA-1 + TEM-1)
  MIC: 3 µg/mL
E. coli GUE, NDM-1 + TEM-1 + OXA-1
  MIC: 3 µg/mL
E. coli HAN (OXA-48 + CTX-M-15)
  MIC: 3 µg/mL
E. coli HAN, OXA-48 + CTX-M-15
  MIC: 3 µg/mL
E. coli HB4 (OmpC-, OmpF-)
  MIC: 0.12 µg/mL
E. coli HB4, (OmpC-, OmpF-), non-carbapenemase producer, porin deficiency
  MIC: 0.12 µg/mL
E. coli IR5 (NDM-1 + CTX-M-15 + TEM-1)
  MIC: 16 µg/mL
E. coli IR5, NDM-1 + TEM-1 + CTX-M-15
  MIC: 16 µg/mL
E. coli JAP (IMP-1)
  MIC: 0.5 µg/mL
E. coli JAP, IMP-1
  MIC: 0.5 µg/mL
E. coli LIL, KPC-2 + TEM-1 + OXA-9
  MIC: 2 µg/mL
E. coli MAD (VIM-1 + CTX-M-3)
  MIC: 1.5 µg/mL
E. coli MAD, VIM-1+ CTX-M-3
  MIC: 1.5 µg/mL
E. coli MAR (Overexpressed AmpC)
  MIC: 16 µg/mL
E. coli MAR, Overexpressed AmpC, non-carbapenemase producer
  MIC: 16 µg/mL
E. coli MET (Chromosome-encoded extended-spectrum cephalosporinase)
  MIC: 0.12 µg/mL
E. coli MET, Chromosome-encoded extended-spectrum cephalosporinase, non-carbapenemase producer
  MIC: 0.12 µg/mL
E. coli NAA (OXA-48 + CTX-M-24)
  MIC: 0.5 µg/mL
E. coli OM3, OXA-48 + TEM-1 + CTX-M-15
  MIC: 0.5 µg/mL
E. coli OM20, NDM-1 + TEM-1 + CTX-M-15
  MIC: 2 µg/mL
E. coli OM22, OXA-48 + TEM-1 + CTX-M-15
  MIC: 0.5 µg/mL
E. coli PSP (KPC-2)
  MIC: 0.5 µg/mL
E. coli PSP, KPC-2 + TEM-1 + OXA-1
  MIC: 0.5 µg/mL
E. coli RIC (NDM-1 + OXA-1 + OXA-10 + CMY-16)
  MIC: 1 µg/mL
E. coli RIC, NDM-1 + CMY-16 + OXA-1 + OXA-10
  MIC: 1 µg/mL
E. coli ROB (OXA-48)
  MIC: 0.5 µg/mL
E. coli ROB, OXA-48
  MIC: 0.5 µg/mL
E. coli SYD (CMY-2)
  MIC: 0.12 µg/mL
E. coli SYD, CMY-2, non-carbapenemase producer
  MIC: 0.12 µg/mL
E. coli TWA, IMP-8 + SHV-12
  MIC: 6 µg/mL
E. coli ZAN, OXA-48 + TEM-1 + CTX-M-14
  MIC: 0.38 µg/mL
Strain E. coli 1008, TEM-1 + CTX-M-1, non-carbapenemase producer
  MIC: 0.19 µg/mL
Strain E. coli 1034, TEM-1 + SHV-38, non-carbapenemase producer
  MIC: 0.19 µg/mL
Strain E. coli 1048, TEM-1 + SHV-2a, non-carbapenemase producer
  MIC: 0.19 µg/mL
Strain E. coli 10121, CTX-M-2, non-carbapenemase producer
  MIC: 0.19 µg/mL
Strain E. coli AME, OXA-48 + CTX-M-24
  MIC: 0.25 µg/mL
Strain E. coli BON, OXA-48 + TEM-1 + CTX-M-24
  MIC: 0.38 µg/mL
Strain E. coli BOU, OXA-48 + CTX-M-15
  MIC: 0.5 µg/mL
